PubChem BioAssay AID330 (DTP/NCI, 2004)
“And” between values parts separate entries of the source, which are not always exact repeats. Equal entries are not always repeated. Toxic doses and inconclusive results are not listed. How the source made its calls: active means survival T/C of 150% or more; inactive means T/C below 125% in these data.

Tested on: P388 leukemia ip, CD2F1 mice, survival T/C
Assay: NCI In Vivo Anticancer Drug Screen. Data for tumor model P388 Leukemia (intraperitoneal) in CD2F1 (CDF1) mice
Conditions: endpoint: median survival time, higher = longer survival
Summary of the method: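 Mice carrying the transplanted tumor received test compound or vehicle. Survival was recorded in each group, and the value is the treated-group measurement divided by that of the vehicle-treated control group.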

[1] = dose: 60.0 mg/kg/injection, schedule: Q01DX005 (ip), vehicle: saline with Tween-80
[2] = dose: 120.0 mg/kg/injection, schedule: Q01DX005 (ip), vehicle: saline with Tween-80
[3] = dose: 240.0 mg/kg/injection, schedule: Q01DX005 (ip), vehicle: saline with Tween-80
[4] = dose: 50.0 mg/kg/injection, schedule: Q01DX009 (ip), vehicle: Klucel (hydroxypropylcellulose) (HPC)
[5] = dose: 100.0 mg/kg/injection, schedule: Q01DX009 (ip), vehicle: saline
[6] = dose: 100.0 mg/kg/injection, schedule: Q01DX009 (ip), vehicle: Klucel (hydroxypropylcellulose) (HPC)
[7] = dose: 200.0 mg/kg/injection, schedule: Q01DX009 (ip), vehicle: Klucel (hydroxypropylcellulose) (HPC)
[8] = dose: 50.0 mg/kg/injection, schedule: Q01DX005 (ip), vehicle: Klucel (hydroxypropylcellulose) (HPC)
[9] = dose: 100.0 mg/kg/injection, schedule: Q01DX005 (ip), vehicle: Klucel (hydroxypropylcellulose) (HPC)
[10] = dose: 200.0 mg/kg/injection, schedule: Q01DX005 (ip), vehicle: Klucel (hydroxypropylcellulose) (HPC)
[11] = dose: 6.25 mg/kg/injection, schedule: Q01DX005 (ip), vehicle: Klucel (hydroxypropylcellulose) (HPC)
[12] = dose: 12.5 mg/kg/injection, schedule: Q01DX005 (ip), vehicle: Klucel (hydroxypropylcellulose) (HPC)
[13] = dose: 25.0 mg/kg/injection, schedule: Q01DX005 (ip), vehicle: Klucel (hydroxypropylcellulose) (HPC)
[14] = dose: 50.0 mg/kg/injection, schedule: Q01DX009 (ip), vehicle: saline
[15] = dose: 200.0 mg/kg/injection, schedule: Q01DX009 (ip), vehicle: saline
[16] = dose: 50.0 mg/kg/injection, schedule: Q01DX009 (ip), vehicle: saline with Tween-80
[17] = dose: 100.0 mg/kg/injection, schedule: Q01DX009 (ip), vehicle: saline with Tween-80

Measured: T/C

Cn1c2ccccc2c(=O)c2c(O)cc3c(c21)CC(C1(C)CO1)O3 (stereo not given)
inactive: dose: 2.0 mg/kg/injection, schedule: Q01DX005 (ip), vehicle: Klucel (hydroxypropylcellulose) (HPC) 99 % of control | dose: 4.0 mg/kg/injection, schedule: Q01DX005 (ip), vehicle: Klucel (hydroxypropylcellulose) (HPC) 105 % of control and 107 % of control | dose: 8.0 mg/kg/injection, schedule: Q01DX005 (ip), vehicle: Klucel (hydroxypropylcellulose) (HPC) 103 % of control and 107 % of control | dose: 16.0 mg/kg/injection, schedule: Q01DX005 (ip), vehicle: Klucel (hydroxypropylcellulose) (HPC) 108 % of control and 116 % of control

Cn1c(=S)[nH]n(CCOc2ccccc2)c1=S
inactive: [1] 118 % of control | [2] 98 % of control and 99 % of control and 108 % of control | [3] 109 % of control and 123 % of control and 97 % of control | dose: 480.0 mg/kg/injection, schedule: Q01DX005 (ip), vehicle: saline with Tween-80 105 % of control and 96 % of control

NC(=O)NC(=O)CCl
inactive: dose: 25.0 mg/kg/injection, schedule: Q01DX009 (ip), vehicle: Klucel (hydroxypropylcellulose) (HPC) 105 % of control and 94 % of control | [4] 103 % of control and 122 % of control and 94 % of control

O=NN(C(=O)NC1CC1)C1CCCC1
inactive: dose: 25.0 mg/kg/injection, schedule: Q01DX001 (ip), vehicle: distilled water + Tween-80 103 % of control | dose: 50.0 mg/kg/injection, schedule: Q01DX001 (ip), vehicle: distilled water + Tween-80 109 % of control | dose: 100.0 mg/kg/injection, schedule: Q01DX001 (ip), vehicle: distilled water + Tween-80 102 % of control | dose: 200.0 mg/kg/injection, schedule: Q01DX001 (ip), vehicle: distilled water + Tween-80 111 % of control | dose: 400.0 mg/kg/injection, schedule: Q01DX001 (ip), vehicle: distilled water + Tween-80 102 % of control

O=S1(=O)OC(c2ccc(O)c(O)c2)(c2ccc(O)c(O)c2)c2ccccc21
inactive: [5] 100 % of control and 98 % of control

CC(C)N1C(=O)c2ccccc2S1(Cl)c1ccccc1 (stereo not given)
inactive: dose: 100.0 mg/kg/injection, schedule: Q04DX003 (ip), vehicle: Klucel (hydroxypropylcellulose) (HPC) 101 % of control | dose: 200.0 mg/kg/injection, schedule: Q04DX003 (ip), vehicle: Klucel (hydroxypropylcellulose) (HPC) 98 % of control | dose: 400.0 mg/kg/injection, schedule: Q04DX003 (ip), vehicle: Klucel (hydroxypropylcellulose) (HPC) 98 % of control

CC(C)Sc1nc2ccc(NC(=O)/C=C/C(=O)O)cc2s1
inactive: [4] 100 % of control | [6] 104 % of control | [7] 101 % of control

CC(=O)NNC(=O)NCCCCCCNC(=O)NNC(C)=O
inactive: [8] 101 % of control | [9] 97 % of control | [10] 92 % of control | dose: 400.0 mg/kg/injection, schedule: Q01DX005 (ip), vehicle: Klucel (hydroxypropylcellulose) (HPC) 94 % of control

NC(=S)C(Cl)(Cl)Cl
inactive: dose: 50.0 mg/kg/injection, schedule: Q01DX005 (ip), vehicle: saline + Tween-80 + alcohol 116 % of control | dose: 100.0 mg/kg/injection, schedule: Q01DX005 (ip), vehicle: saline + Tween-80 + alcohol 119 % of control | dose: 200.0 mg/kg/injection, schedule: Q01DX005 (ip), vehicle: saline + Tween-80 + alcohol 113 % of control

Cc1[nH]c(N)nc(=S)c1CCCNc1ccc(C(=O)NC(CCC(=O)O)C(=O)O)cc1 (stereo not given)
inactive: [11] 101 % of control | [12] 99 % of control | [13] 98 % of control

COC(=O)c1c(OC)cc2cc3c(c(O)c2c1C)C(=O)C1(O)C(=O)C=C(OC)C(OC(=O)CC(C)N)=C1C3=O (stereo not given)
inactive: dose: 25.0 mg/kg/injection, schedule: Q01DX005 (ip), vehicle: water 103 % of control | dose: 50.0 mg/kg/injection, schedule: Q01DX005 (ip), vehicle: water 100 % of control | dose: 100.0 mg/kg/injection, schedule: Q01DX005 (ip), vehicle: water 104 % of control

C/C=C1\CN(C)CCC23C(=O)CC1C1COC(O)C(=O)N(c4ccccc42)C13 (stereo not given)
inactive: dose: 1.0 mg/kg/injection, schedule: Q01DX009 (ip), vehicle: Klucel (hydroxypropylcellulose) (HPC) 103 % of control | dose: 2.0 mg/kg/injection, schedule: Q01DX009 (ip), vehicle: Klucel (hydroxypropylcellulose) (HPC) 110 % of control | dose: 4.0 mg/kg/injection, schedule: Q01DX009 (ip), vehicle: Klucel (hydroxypropylcellulose) (HPC) 118 % of control | dose: 5.0 mg/kg/injection, schedule: Q01DX009 (ip), vehicle: saline 97 % of control | dose: 8.0 mg/kg/injection, schedule: Q01DX009 (ip), vehicle: Klucel (hydroxypropylcellulose) (HPC) 101 % of control | dose: 10.0 mg/kg/injection, schedule: Q01DX009 (ip), vehicle: saline 99 % of control | dose: 16.0 mg/kg/injection, schedule: Q01DX009 (ip), vehicle: Klucel (hydroxypropylcellulose) (HPC) 110 % of control | dose: 20.0 mg/kg/injection, schedule: Q01DX009 (ip), vehicle: saline 101 % of control

COc1ccc2c3c(cnc2c1)P(C)(=O)CC3 (stereo not given)
inactive: [14] 101 % of control | [5] 96 % of control | [15] 102 % of control

S=c1nc[nH]c2c1ncn2C1CCCC1
inactive: dose: 100.0 mg/kg/injection, schedule: Q04DX003 (ip), vehicle: saline with Tween-80 104 % of control | dose: 200.0 mg/kg/injection, schedule: Q04DX003 (ip), vehicle: saline with Tween-80 104 % of control | dose: 400.0 mg/kg/injection, schedule: Q04DX003 (ip), vehicle: saline with Tween-80 90 % of control

O=C1Cc2ccccc2C2(CCCCC2)O1
inactive: [8] 100 % of control | [9] 98 % of control | [10] 100 % of control

CSCC[C@]1(C)C(=O)N(C)[C@H](C(C)(C)C)N1C(=O)c1ccccc1
inactive: [1] 99 % of control | [2] 100 % of control | [3] 93 % of control

CC(=O)c1c[nH]cc1CO
inactive: [16] 107 % of control | [17] 100 % of control | dose: 200.0 mg/kg/injection, schedule: Q01DX009 (ip), vehicle: saline with Tween-80 98 % of control

C=C1C(=O)OC2C3CCC2C1C3 (stereo not given)
inactive: dose: 12.5 mg/kg/injection, schedule: Q04DX003 (ip), vehicle: saline with Tween-80 101 % of control | dose: 25.0 mg/kg/injection, schedule: Q04DX003 (ip), vehicle: saline with Tween-80 115 % of control | dose: 50.0 mg/kg/injection, schedule: Q04DX003 (ip), vehicle: saline with Tween-80 100 % of control

CC(C)CCC[C@@H](C)[C@H]1CC[C@H]2[C@@H]3CC[C@H]4C[C@@H](N)CC[C@]4(C)[C@H]3CC[C@]12C
inactive: [11] 98 % of control | [12] 97 % of control | [13] 95 % of control | [8] 112 % of control | [9] 109 % of control

Cc1cc(C2(c3cc(C)c(O)c(C)c3)OC(=O)c3ccccc32)cc(C)c1O
inactive: [4] 105 % of control | [6] 99 % of control | [7] 103 % of control

N#C/C(=C\c1ccc([N+](=O)[O-])o1)[N+](=O)[O-]
inactive: [14] 103 % of control | [5] 93 % of control

Oc1ccc(/C=N/N=C/c2ccc(O)c(O)c2)cc1O
inactive: dose: 50.0 mg/kg/injection, schedule: Q01DX005 (ip), vehicle: saline with Tween-80 121 % of control | dose: 100.0 mg/kg/injection, schedule: Q01DX005 (ip), vehicle: saline with Tween-80 106 % of control and 119 % of control | dose: 200.0 mg/kg/injection, schedule: Q01DX005 (ip), vehicle: saline with Tween-80 113 % of control | dose: 400.0 mg/kg/injection, schedule: Q01DX005 (ip), vehicle: saline with Tween-80 121 % of control

CCOCC(=O)O
inactive: [14] 95 % of control | [5] 92 % of control | [15] 91 % of control

CN(CCC[NH-])CCC[NH-].[Cl][Pd][Cl]
inactive: dose: 25.0 mg/kg/injection, schedule: Q04DX002 (ip), vehicle: saline 102 % of control | dose: 50.0 mg/kg/injection, schedule: Q04DX002 (ip), vehicle: saline 102 % of control | dose: 100.0 mg/kg/injection, schedule: Q04DX002 (ip), vehicle: saline 98 % of control

O=C(CCl)N1CC2CCC(CC2)C1
inactive: [16] 102 % of control | [17] 91 % of control

CC1(C)NNC(=S)NN1
inactive: dose: 7.5 mg/kg/injection, schedule: Q01DX005 (ip), vehicle: saline with Tween-80 103 % of control | dose: 15.0 mg/kg/injection, schedule: Q01DX005 (ip), vehicle: saline with Tween-80 104 % of control
